Laboratory results published in patent US9540392B2, “Thienopyrimidines” (BAYER PHARMA AKTIENGESELLSCHAFT, priority 2012, dated 2017).

target: T1, human full-length MKNK1 (Homo sapiens, UniProt Q9BUB5, T385D); test: MKNK1 kinase high ATP assay (TR-FRET); type: biochemical; conditions: 2 mM ATP, after preincubation with MKNK1; read-out: MKNK1 IC50 (MKNK1 high ATP)
T1 construct: GST (N); purchased Carna Biosciences 02-145; host or cells: insect cells (baculovirus expression system)
Description: MKNK1-inhibitory activity at high ATP of compounds of the present invention after their preincubation with MKNK1 was quantified employing the TR-FRET-based MKNK1 high ATP assay as described in the following paragraphs.
As substrate for the kinase reaction the biotinylated peptide biotin-Ahx-[…] (C-terminus in amide form) was used, which can be purchased e.g. from the company Biosyntan (Berlin-Buch, Germany).
For the assay 50 nL of a 100 fold concentrated solution of the test compound in DMSO was pipetted into a black low volume 384 well microtiter plate (Greiner Bio-One, Frickenhausen, Germany), 2 μL of a solution of MKNK1 in aqueous assay buffer [50 mM HEPES pH 7.5, 5 mM MgCl2, 1.0 mM dithiothreitol, 0.005% (v/v) Nonidet-P40 (Sigma)] was added and the mixture was incubated for 15 min at 22° C. to allow pre-binding of the test compounds to the enzyme before the start of the kinase reaction. Then the kinase reaction was started by the addition of 3 μL of a solution of adenosine-tri-phosphate (ATP, 3.3 mM=>final conc. in the 5 μL assay volume is 2 mM) and substrate (0.1 μM=>final conc. in the 5 μL assay volume is 0.06 μM) in assay buffer and the resulting mixture was incubated for a reaction time of 30 min at 22° C. The concentration of MKNK1 was adjusted depending of the activity of the enzyme lot and was chosen appropriate to have the assay in the linear range, typical concentrations were in the range of 0.003 μg/mL. The reaction was stopped by the addition of 5 μL of a solution of TR-FRET detection reagents (5 nM streptavidine-XL665 [Cisbio Bioassays, Codolet, France] and 1 nM anti-ribosomal protein S6 (pSer236)-antibody from Invitrogen [#44921G] and 1 nM LANCE EU-W1024 Labeled ProteinG [Perkin-Elmer, product no. AD0071]) in an aqueous EDTA-solution (100 mM EDTA, 0.1% (w/v) bovine serum albumin in 50 mM HEPES pH 7.5).
The resulting mixture was incubated for 1 h at 22° C. to allow the formation of complex between the phosphorylated biotinylated peptide and the detection reagents. Subsequently the amount of phosphorylated substrate was evaluated by measurement of the resonance energy transfer from the Eu-chelate to the streptavidine-XL. Therefore, the fluorescence emissions at 620 nm and 665 nm after excitation at 350 nm were measured in a TR-FRET reader, e.g. a Rubystar (BMG Labtechnologies, Offenburg, Germany) or a Viewlux (Perkin-Elmer). The ratio of the emissions at 665 nm and at 622 nm was taken as the measure for the amount of phosphorylated substrate.

T1 sequence (Q9BUB5 1-424 isoform Q9BUB5-2 T344D): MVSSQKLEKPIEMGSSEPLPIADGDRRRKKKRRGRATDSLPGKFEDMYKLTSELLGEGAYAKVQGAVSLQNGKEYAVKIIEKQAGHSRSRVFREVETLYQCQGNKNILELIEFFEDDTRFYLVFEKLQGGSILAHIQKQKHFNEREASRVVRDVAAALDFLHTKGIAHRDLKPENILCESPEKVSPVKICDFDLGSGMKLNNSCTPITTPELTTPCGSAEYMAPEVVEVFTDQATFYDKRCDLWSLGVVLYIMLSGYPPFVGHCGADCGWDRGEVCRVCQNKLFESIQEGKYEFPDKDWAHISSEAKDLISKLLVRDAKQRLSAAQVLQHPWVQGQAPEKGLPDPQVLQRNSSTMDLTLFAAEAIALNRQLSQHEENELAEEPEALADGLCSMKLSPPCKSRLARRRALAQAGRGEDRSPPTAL

IC50 [nM] | Structure (SMILES)
1.5 | CC(C)Oc1cc2[nH]ncc2cc1Nc1ncnc2sc3c(c12)CCC(C(=O)N1CCCCC1)C3 (racemic) [Example 213, (RS)-Piperidin-1-yl(4-{[6-(propan-2-yloxy)-1H-indazol-5-yl]amino}-5,6,7,8-tetrahydro[1]benzothieno[2,3-d]pyrimidin-7-yl)methanone]
38.1 | CN(Cc1cnn(C)c1)C(=O)C1CCc2c(sc3ncnc(Nc4ccc5[nH]ncc5c4)c23)C1 (racemic) [Example 157, (RS)-4-(1H-indazol-5-ylamino)-N-methyl-N-[(1-methyl-1H-pyrazol-4-yl)methyl]-5,6,7,8-tetrahydro[1]benzothieno[2,3-d]pyrimidine-7-carboxamide]
7 | COc1ccc(NC(=O)C2CCc3c(sc4ncnc(Nc5ccc6[nH]ncc6c5)c34)C2)cc1 (stereo not shown) [Example 14, 4-(1H-indazol-5-ylamino)-N-(4-methoxyphenyl)-5,6,7,8-tetrahydro[1]benzothieno[2,3-d]pyrimidine-7-carboxamide]
5.8 | O=C(NCCc1cccs1)C1CCc2c(sc3ncnc(Nc4ccc5[nH]ncc5c4)c23)C1 (racemic) [Example 116, (RS)-4-(1H-indazol-5-ylamino)-N-[2-(thiophen-2-yl)ethyl]-5,6,7,8-tetrahydro[1]benzothieno[2,3-d]pyrimidine-7-carboxamide]
1420 | Cc1n[nH]c2ccc(Nc3ncnc4sc5c(c34)CCC(C(=O)O)C5)cc12 (racemic) [Example 62, (RS)-4-[(3-Methyl-1H-indazol-5-yl)amino]-5,6,7,8-tetrahydro[1]benzothieno[2,3-d]pyrimidine-7-carboxylic acid]
0.4 | CCOc1cc2[nH]ncc2cc1Nc1ncnc2sc3c(c12)CCC(C(=O)N1CCCC(C#N)C1)C3 (racemic) [Example 241, (RS)-1-({4-[(6-Ethoxy-1H-indazol-5-yl)amino]-5,6,7,8-tetrahydro[1]benzothieno[2,3-d]pyrimidin-7-yl}carbonyl)piperidine-3-carbonitrile]
8 | CC(=O)N[C@@H]1CCN(C(=O)C2CCc3c(sc4ncnc(Nc5ccc6[nH]ncc6c5)c34)C2)C1 (mixture of isomers) [Example 124, (RS)-N-(1-{[4-(1H-indazol-5-ylamino)-5,6,7,8-tetrahydro[1]benzothieno[2,3-d]pyrimidin-7-yl]carbonyl}pyrrolidin-3-yl)acetamide]
31.1 | COC(=O)N1CCN(C(=O)C2CCc3c(sc4ncnc(Nc5ccc6[nH]ncc6c5)c34)C2)CC1 (racemic) [Example 160, (RS)-methyl4-{[4-(1H-indazol-5-ylamino)-5,6,7,8-tetrahydro[1]benzothieno[2,3-d]pyrimidin-7-yl]carbonyl}piperazine-1-carboxylate]
32.5 | COCCCN1CCN(C(=O)C2CCc3c(sc4ncnc(Nc5ccc6[nH]ncc6c5)c34)C2)CC1 (racemic) [Example 153, (RS)-[4-(1H-indazol-5-ylamino)-5,6,7,8-tetrahydro[1]benzothieno[2,3-d]pyrimidin-7-yl][4-(3-methoxypropyl)piperazin-1-yl]methanone]
0.7 | CCN(C)C(=O)C1CCc2c(sc3ncnc(Nc4cc5cn[nH]c5cc4OC)c23)C1 (racemic) [Example 179, (RS)—N-Ethyl-4-[(6-methoxy-1H-indazol-5-yl)amino]-N-methyl-5,6,7,8-tetrahydro[1]benzothieno[2,3-d]pyrimidine-7-carboxamide]
4 | COc1ccc(CNC(=O)C2CCc3c(sc4ncnc(Nc5ccc6[nH]ncc6c5)c34)C2)cc1 (stereo not shown) [Example 30, 4-(1H-Indazol-5-ylamino)-N-(4-methoxybenzyl)-5,6,7,8-tetrahydro[1] benzothieno [2,3-d]pyrimidine-7-carboxamide]
2.7 | CCCOc1cc2[nH]ncc2cc1Nc1ncnc2sc3c(c12)CCC(C(=O)N(C)C)C3 (racemic) [Example 269, (RS)—N,N-Dimethyl-4-[(6-propoxy-1H-indazol-5-yl)amino]-5,6,7,8-tetrahydro[1]benzothieno[2,3-d]pyrimidine-7-carboxamide]
5 | CN(C)c1ccc(CNC(=O)C2CCc3c(sc4ncnc(Nc5ccc6[nH]ncc6c5)c34)C2)cc1 (stereo not shown) [Example 34, N-[4-(Dimethylamino)benzyl]-4-(1H-indazol-5-ylamino)-5,6,7,8-tetrahydro[1] benzothieno [2,3-d]pyrimidine-7-carboxamide]
1.2 | CN(C)C(=O)C1CCc2c(sc3ncnc(Nc4cc5cn[nH]c5cc4OCCCl)c23)C1 (racemic) [Example 266, (RS)-4-{[6-(2-Chloroethoxy)-1H-indazol-5-yl]amino}-N,N-dimethyl-5,6,7,8-tetrahydro[1]benzothieno[2,3-d]pyrimidine-7-carboxamide]
27.7 | O=C(Nc1ccccn1)C1CCc2c(sc3ncnc(Nc4ccc5[nH]ncc5c4)c23)C1 (racemic) [Example 99, (RS)-4-(1H-indazol-5-ylamino)-N-(pyridin-2-yl)-5,6,7,8-tetrahydro[1]benzothieno[2,3-d]pyrimidine-7-carboxamide]
0.7 | CCCN(C)C(=O)C1CCc2c(sc3ncnc(Nc4cc5cn[nH]c5cc4OC)c23)C1 (stereo not shown) [Example 68, 4-[(6-Methoxy-1H-indazol-5-yl)amino]-N-methyl-N-propyl-5,6,7,8-tetrahydro[1]benzothieno[2,3-d]pyrimidine-7-carboxamide]
9 | CCOC(=O)C1CCc2c(sc3ncnc(Nc4cc5cn[nH]c5cc4Cl)c23)C1 (stereo not shown) [Example 53, Ethyl 4-[(6-chloro-1H-indazol-5-yl)amino]-5,6,7,8-tetrahydro[1]benzothieno[2,3-d]pyrimidine-7-carboxylate]
0.4 | CCN(CCO)C(=O)C1CCc2c(sc3ncnc(Nc4cc5cn[nH]c5cc4OC)c23)C1 (racemic) [Example 171, (RS)—N-Ethyl-N-(2-hydroxyethyl)-4-[(6-methoxy-1H-indazol-5-yl)amino]-5,6,7,8-tetrahydro[1]benzothieno[2,3-d]pyrimidine-7-carboxamide]
14.8 | CN(C)C(=O)N1CCN(C(=O)C2CCc3c(sc4ncnc(Nc5ccc6[nH]ncc6c5)c34)C2)CC1 (racemic) [Example 126, (RS)-4-{[4-(1H-indazol-5-ylamino)-5,6,7,8-tetrahydro[1]benzothieno[2,3-d]pyrimidin-7-yl]carbonyl}-N,N-dimethylpiperazine-1-carboxamide]
10.2 | CC(C)NC(=O)C1CCc2c(sc3ncnc(Nc4cc5cn[nH]c5cc4F)c23)C1 (racemic) [Example 63, (RS)-4-[(6-Fluoro-1H-indazol-5-yl)amino]-N-(propan-2-yl)-5,6,7,8-tetrahydro[1]benzothieno[2,3-d]pyrimidine-7-carboxamide]
8.1 | O=C(NCCN1CCCC1)C1CCc2c(sc3ncnc(Nc4ccc5[nH]ncc5c4)c23)C1 (racemic) [Example 98, (RS)-4-(1H-indazol-5-ylamino)-N-[2-(pyrrolidin-1-yl)ethyl]-5,6,7,8-tetrahydro[1]benzothieno[2,3-d]pyrimidine-7-carboxamide]
3.9 | CC(C)Oc1cc2[nH]ncc2cc1Nc1ncnc2sc3c(c12)CCC(C(=O)O)C3 (racemic) [Example 69, (RS)-4-{[6-(Propan-2-yloxy)-1H-indazol-5-yl]amino}-5,6,7,8-tetrahydro[1]benzothieno[2,3-d]pyrimidine-7-carboxylic acid]
0.5 | COc1cc2[nH]ncc2cc1Nc1ncnc2sc3c(c12)CCC(C(=O)N(C)CC1CC1)C3 (racemic) [Example 182, (RS)—N-(Cyclopropylmethyl)-4-[(6-methoxy-1H-indazol-5-yl)amino]-N-methyl-5,6,7,8-tetrahydro[1]benzothieno[2,3-d]pyrimidine-7-carboxamide]
0.4 | COc1cc2[nH]ncc2cc1Nc1ncnc2sc3c(c12)CCC(C(=O)N1CCC1)C3 (racemic) [Example 177, (RS)-Azetidin-1-yl{4-[(6-methoxy-1H-indazol-5-yl)amino]-5,6,7,8-tetrahydro[1]benzothieno[2,3-d]pyrimidin-7-yl}methanone]
0.5 | CC(C)Oc1cc2[nH]ncc2cc1Nc1ncnc2sc3c(c12)CCC(C(=O)N(C)C(C)C)C3 (racemic) [Example 215, (RS)—N-Methyl-N-(propan-2-yl)-4-{[6-(propan-2-yloxy)-1H-indazol-5-yl]amino}-5,6,7,8-tetrahydro[1]benzothieno[2,3-d]pyrimidine-7-carboxamide]
